Our source for the Kinact/Kl values is patent US20250230165A1, “HETEROCYCLIC COMPOUNDS FOR USE IN THE TREATMENT OF CANCER” (ARTIOS PHARMA LIMITED, priority 2021, published 2025).

This assay addresses T1, Human Polθ polymerase domain (aa1820-2590) (Homo sapiens, UniProt O75417).
T1 construct: Human Polθ polymerase domain (aa1820-2590) was expressed in E. coli; made in house; host or cells: E. coli
T1 sequence (O75417 1820-2590): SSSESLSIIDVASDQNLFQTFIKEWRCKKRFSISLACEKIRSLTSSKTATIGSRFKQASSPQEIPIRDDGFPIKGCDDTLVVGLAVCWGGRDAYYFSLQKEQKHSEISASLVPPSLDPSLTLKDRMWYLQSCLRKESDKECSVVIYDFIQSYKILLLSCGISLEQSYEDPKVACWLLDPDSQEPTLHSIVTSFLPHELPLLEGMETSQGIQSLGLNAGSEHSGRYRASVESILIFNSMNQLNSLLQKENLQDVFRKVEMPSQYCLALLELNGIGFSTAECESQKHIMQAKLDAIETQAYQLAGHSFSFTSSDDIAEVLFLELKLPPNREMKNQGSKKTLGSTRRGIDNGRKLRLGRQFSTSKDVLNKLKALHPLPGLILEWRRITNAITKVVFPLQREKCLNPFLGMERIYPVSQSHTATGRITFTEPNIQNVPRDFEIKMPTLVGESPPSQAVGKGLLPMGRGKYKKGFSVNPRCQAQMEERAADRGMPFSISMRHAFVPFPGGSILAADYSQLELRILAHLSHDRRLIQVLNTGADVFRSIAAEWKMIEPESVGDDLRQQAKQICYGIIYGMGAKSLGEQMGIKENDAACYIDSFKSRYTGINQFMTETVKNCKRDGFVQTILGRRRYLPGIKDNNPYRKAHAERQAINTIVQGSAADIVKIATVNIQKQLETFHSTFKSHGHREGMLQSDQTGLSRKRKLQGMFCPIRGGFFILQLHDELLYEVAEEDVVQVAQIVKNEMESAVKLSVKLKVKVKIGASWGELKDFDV
Briefly: Polθ Polymerase Domain Kinact/KI Assay (PicoGreen). It is filed as biochemical. To be noted: 0.8 nM Polθ, 100 nM DNA substrate, kobs vs [I] fit for 2-step covalent inhibitor. In short, it runs like this: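 Covalent inhibitors were tested against E. coli-expressed enzyme (0.8 nM final) with 100 nM annealed DNA substrate and […] in Tris pH 7.5 buffer, 1% DMSO. Reactions were EDTA-quenched over a 0–60 min time course and product DNA detected by PicoGreen fluorescence.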
`Cc1cc(C(F)(F)F)cc(N2C(=O)C[C@@H]3CN(Cc4cn5c(n4)CN(C(=O)/C=C/C(F)F)CC5)c4c(Cl)cccc4N(C)C(=O)[C@H]32)n1` [Example 306, (3aR,11aS)-6-chloro-5-((7-((E)-4,4-difluorobut-2-enoyl)-5,6,7,8-tetrahydroimidazo[1,2-a]pyrazin-2-yl)methyl)-10-methyl-1-(6-methyl-4-(trifluoromethyl)pyridin-2-yl)-1,3a,4,5,10,11a-hexahydro-2H-benzo[b]pyrrolo[2,3-f][1,4]diazocine-2,11(3H)-dione] showed a Kinact/Kl of 1.54e+06 M⁻¹ s⁻¹. As to `Cc1cc(C(F)(F)F)cc(N2C(=O)C[C@@H]3CN(Cc4cn5c(n4)CN(C(=O)/C=C/C(F)(F)F)CC5)c4c(Cl)cccc4N(C)C(=O)[C@H]32)n1` [Example 307, (3aR,11aS)-6-chloro-10-methyl-1-(6-methyl-4-(trifluoromethyl)pyridin-2-yl)-5-((7-((E)-4,4,4-trifluorobut-2-enoyl)-5,6,7,8-tetrahydroimidazo[1,2-a]pyrazin-2-yl)methyl)-1,3a,4,5,10,11a-hexahydro-2H-benzo[b]pyrrolo[2,3-f][1,4]diazocine-2,11(3H)-dione], the Kinact/Kl stood at 1.35e+06 M⁻¹ s⁻¹.

`Cc1cc(C(F)(F)F)cc(N2C(=O)C[C@@H]3CN(Cc4ccc5c(c4)OCCN5C(=O)/C=C/CN(C)C)c4c(Cl)cccc4N(C)C(=O)[C@H]32)n1` [Example 308, (3aR,11aS)-6-chloro-5-((4-((E)-4-(dimethylamino)but-2-enoyl)-3,4-dihydro-2H-benzo[b][1,4]oxazin-7-yl)methyl)-10-methyl-1-(6-methyl-4-(trifluoromethyl)pyridin-2-yl)-1,3a,4,5,10,11a-hexahydro-2H-benzo[b]pyrrolo[2,3-f][1,4]diazocine-2,11(3H)-dione]: the Kinact/Kl is 280000 M⁻¹ s⁻¹.

The compound `Cc1cc(C(F)(F)F)cc(N2C(=O)C[C@@H]3CN(Cc4cc(F)c(NC(=O)/C=C/CN(C)C)c(F)c4)c4c(Cl)cccc4N(C)C(=O)[C@H]32)n1` [Example 309, (E)-N-(4-(((3aR,11aS)-6-chloro-10-methyl-1-(6-methyl-4-(trifluoromethyl)pyridin-2-yl)-2,11-dioxo-1,2,3,3a,4,10,11,11a-octahydro-5H-benzo[b]pyrrolo[2,3-f][1,4]diazocin-5-yl)methyl)-2,6-difluorophenyl)-4-(dimethylamino)but-2-enamide] came in with a Kinact/Kl of 1.02e+06 M⁻¹ s⁻¹. Then `C=CC(=O)N1Cc2cc(CN3C[C@H]4CC(=O)N(c5cc(C(F)(F)F)cc(C)n5)[C@@H]4C(=O)N(C)c4cccc(C)c43)cnc2C1` [Example 312, (3aR,11aS)-5-((6-acryloyl-6,7-dihydro-5H-pyr-rolo[3,4-b]pyridin-3-yl)methyl)-6,10-dimethyl-1-(6-methyl-4-(trifluoro-methyl)pyridin-2-yl)-1,3a,4,5,10, 11a-hexahydro-2H-benzo[b]pyrrolo [2,3-f][1,4]diazo-cine-2,11(3H)-dione], with 1.85e+06 M⁻¹ s⁻¹. Then `C=CC(=O)N1Cc2ccc(CN3C[C@H]4CC(=O)N(c5cc(C(F)(F)F)cc(C)n5)[C@@H]4C(=O)N(C)c4cccc(C)c43)cc2C1` [Example 313, (3aR,11aS)-5-((2-acryloylisoindolin-5-yl)methyl)-6,10-dimethyl-1-(6-meth-yl-4-(trifluorometh-yl)pyridin-2-yl)-1,3a,4,5,10,11a-hexahydro-2H-benzo [b]pyrrolo[2,3-f] [1,4]diazocine-2,11(3H)-dione], with 660000 M⁻¹ s⁻¹; and `C=CC(=O)N1Cc2nc(CN3C[C@H]4CC(=O)N(c5cc(C(F)(F)F)cc(C)n5)[C@@H]4C(=O)N(C)c4cccc(C)c43)n(CC)c2C1` [Example 314, (3aR,11aS)-5-((5-acryloyl-1-ethyl-1,4,5,6-tetrahydro-pyrrolo[3,4-d]imid-azol-2-yl)methyl)-6,10-dimethyl-1-(6-methyl-4-(trifluoro-methyl)pyridin-2-yl)-1,3a,4,5,10,11a-hexahydro-2H-benzo[b]pyrrolo [2,3-f][1,4]diazo-cine-2,11(3H)-dione], with 1.74e+06 M⁻¹ s⁻¹. The compound `C=CC(=O)N1Cc2nc(CN3C[C@H]4CC(=O)N(c5cc(C(F)(F)F)cc(C)n5)[C@@H]4C(=O)N(C)c4cccc(C)c43)sc2C1` [Example 315, (3aR,11aS)-5-((5-acryloyl-5,6-di-hydro-4H-pyrrolo [3,4-d]thiazol-2-yl)-methyl)-6,10-dimeth-yl-1-(6-methyl-4-(trifluoromethyl)-pyridin-2-yl)-1,3a,4,5,10,11a-hexahydro-2H-benzo[b]pyrrolo [2,3-f][1,4]diazocine-2,11(3H)-dione] yielded a Kinact/Kl of 1.79e+06 M⁻¹ s⁻¹.

The compound `C=CC(=O)N1Cc2nc(CN3C[C@H]4CC(=O)N(c5cc(C(F)(F)F)cc(C)n5)[C@@H]4C(=O)N(C)c4cccc(C)c43)oc2C1` [Example 316, (3aR,11aS)-5-((5-acryloyl-5,6-di-hydro-4H-pyrrolo [3,4-d]oxazol-2-yl)-methyl)-6,10-dimethyl-1-(6-meth-yl-4-(trifluorometh-yl)pyridin-2-yl)-1,3a,4,5,10,11a-hexahydro-2H-benzo[b]pyrrolo [2,3-f][1,4]diazo-cine-2,11(3H)-dione] displayed a Kinact/Kl of 610000 M⁻¹ s⁻¹. For the compound `C=CC(=O)N1Cc2c(CN3C[C@H]4CC(=O)N(c5cc(C(F)(F)F)cc(C)n5)[C@@H]4C(=O)N(C)c4cccc(C)c43)nn(C)c2C1` [Example 317, (3aR,11aS)-5-((5-acryloyl-1-methyl-1,4,5,6-tetrahydro-pyrrolo[3,4-c]pyr-azol-3-yl)methyl)-6,10-dimethyl-1-(6-methyl-4-(trifluoro-methyl)pyridin-2-yl)-1,3a,4,5,10,11a-hexahydro-2H-benzo[b]pyrrolo [2,3-f][1,4]diazo-cine-2,11(3H)-dione], the Kinact/Kl was found to be 230000 M⁻¹ s⁻¹. `C=C(CN(C)C)C(=O)N1CC(CCCN2C[C@H]3CC(=O)N(c4cc(C(F)(F)F)cc(C)n4)[C@@H]3C(=O)N(C)c3cccc(C)c32)C1` [Example 327, (3aR,11aS)-5-(3-(1-(2-((dimethylamino)-methyl)acryloyl)-azetidin-3-yl)propyl)-6,10-dimethyl-1-(6-methyl-4-(trifluoro-methyl)pyridin-2-yl)-1,3a,4,5,10,11a-hexa-hydro-2H-benzo[b] pyrrolo[2,3-f][1,4] diazocine-2,11(3H)-dione] returned a Kinact/Kl of 3.64e+06 M⁻¹ s⁻¹. In turn, `C=C(CN(C)C)C(=O)N1CC2(CC(CN3C[C@H]4CC(=O)N(c5cc(C(F)(F)F)cc(C)n5)[C@@H]4C(=O)N(C)c4cccc(C)c43)C2)C1` [Example 328, (3aR,11aS)-5-((2-(2-((dimethylamino)-methyl)acryloyl)-2-azaspiro[3.3]heptan-6-yl)methyl)-6,10-dimethyl-1-(6-meth-yl-4-(trifluorometh-yl)pyridin-2-yl)-1,3a, 4,5,10,11a-hexa-hydro-2H-benzo[b] pyrrolo[2,3-f][1,4] diazocine-2,11(3H)-dione] yielded a Kinact/Kl of 4.11e+06 M⁻¹ s⁻¹.

`Cc1cc(C(F)(F)F)cc(N2C(=O)C[C@@H]3CN(C[C@H]4C[C@H](NC(=O)/C=C/CN(C)C)C4)c4c(C)cccc4N(C)C(=O)[C@H]32)n1` [Example 331, (E)-N-((1R,3r)-3-(((3aR,11aS)-6,10-dimethyl-1-(6-meth-yl-4-(trifluorometh-yl)pyridin-2-yl)-2,11-dioxo-1,2,3,3a, 4,10,11,11a-octa-hydro-5H-benzo[b]pyrrolo[2,3-f][1,4]diazocin-5-yl)meth-yl)cyclobutyl)-4-(dimethylamino)but-2-enamide] yielded a Kinact/Kl of 1.85e+06 M⁻¹ s⁻¹. With `Cc1cc(C(F)(F)F)cc(N2C(=O)C[C@@H]3CN(C[C@H]4C[C@@H](NC(=O)/C=C/CN(C)C)C4)c4c(C)cccc4N(C)C(=O)[C@H]32)n1` [Example 332, (E)-N-((1S,3s)-3-(((3aR,11aS)-6,10-dimethyl-1-(6-methyl-4-(trifluoromethyl)-pyridin-2-yl)-2,11-dioxo-1,2,3,3a,4,10, 11,11a-octahydro-5H-benzo[b]pyrrolo [2,3-f][1,4]diazocin-5-yl)methyl)cyclo-butyl)-4-(dimethyl-amino)but-2-enamide], the Kinact/Kl amounted to 1.3e+06 M⁻¹ s⁻¹.

On to “(3aR,11aS)-5-(2-((3R/S,9aS/R)-8-acryloyl-3-methyl-4-oxooctahydro-2H-pyrazino[1,2-a]pyrazin-2-yl)ethyl)-6-fluoro-10-methyl-1-(6-methyl-4-(trifluoromethyl)pyridin-2-yl)-1,3a,4,5,10,11a-hexahydro-2H-benzo[b]pyrrolo[2,3-f][1,4]diazocine-2,11(3H)-dione [Example 107]”, for which the Kinact/Kl stood at 420000 M⁻¹ s⁻¹.
